Data from patent US8895753B2, “S1P receptor modulating agent” (Meiji Seika Pharma Co., Ltd., priority 2011, dated 2014).

What was measured:
Human S1P3 receptor [1] = target: T1, Human S1P3 receptor (Homo sapiens, UniProt Q99500); assay: Agonist activity at a S1P3 receptor (reporter assay, EDG3-Galpha15-NFAT-bla HEK293T cells); assay type: cell-based
Description: Human S1P3 receptor gene recombinant EDG3-Galpha15-NFAT-bla HEK293T cells (Life Technologies Japan Ltd.) were plated into a 384-well clear bottom black plate treated with poly-D-lysine at a density of 1000 cells/32 μL/well, and the plate was cultured at 37° C. in a 5% CO2 incubator for 16-24 hours. A culture medium containing each test compound prepared as a 5× concentrate was added at 8 μL/well, and the plate was incubated at 37° C. in a 5% CO2 incubator for 5 hours. The substrate (LiveBLAzer™-FRET B/G substrate (CCF4-AM), Life Technologies Japan Ltd.) was prepared as a 6× concentrate was added at 8 μL to each well, and the plate was incubated at room temperature for 2 hours in the dark. The fluorescence intensity of the test samples was measured using a bottom-reading fluorescence microplate reader at one excitation wavelength and 2 wavelengths for fluorescence emission (Ex409 nm, Em460 nm, Em530 nm). The intensity ratio of fluorescence at 460 nm/530 nm was calculated for the compound at each well. The maximum response ratio confirmed from the dose response of S1P was expressed as 100%. The concentration of test compounds required to stimulate 50% of its maximal activation was computed as EC50 (nM).

Human S1P3 receptor [2] = target: T1, Human S1P3 receptor; assay: Agonist activity at an S1P3 receptor ([35S]-GTPγS exchange reaction at 1000 nM); assay type: biochemical; conditions: read-out: percent of the maximal agonist activity at S1P3 receptor
Description: By using membrane fractions prepared from a human S1P1 receptor expressing cells (Multispan Ltd.), the agonist activity of each test compound was measured by [^35S]-GTPγS exchange reaction in accordance with a standard procedure (Methods in Molecular Biology, Vol. 552, p 143-151 (2009)), and EC50 (nM) of each test compound was computed.
By using membrane fractions prepared from Human S1P3 receptor expressing cells (Multispan Inc.), the agonist activity of the compound in the present invention was measured by a [^35S]-GTPγS exchange reaction at 1000 nM by the similar method of the Experimental Example 2.

Human S1P4 receptor = target: T2, Human S1P4 receptor (Homo sapiens, UniProt O95977); assay: Agonist activity at an S1P4 receptor (calcium influx); assay type: cell-based; conditions: at 1000 nM; read-out: activity at S1P4 receptor (elevation of intracellular calcium)
T2 sequence (O95977 1-384): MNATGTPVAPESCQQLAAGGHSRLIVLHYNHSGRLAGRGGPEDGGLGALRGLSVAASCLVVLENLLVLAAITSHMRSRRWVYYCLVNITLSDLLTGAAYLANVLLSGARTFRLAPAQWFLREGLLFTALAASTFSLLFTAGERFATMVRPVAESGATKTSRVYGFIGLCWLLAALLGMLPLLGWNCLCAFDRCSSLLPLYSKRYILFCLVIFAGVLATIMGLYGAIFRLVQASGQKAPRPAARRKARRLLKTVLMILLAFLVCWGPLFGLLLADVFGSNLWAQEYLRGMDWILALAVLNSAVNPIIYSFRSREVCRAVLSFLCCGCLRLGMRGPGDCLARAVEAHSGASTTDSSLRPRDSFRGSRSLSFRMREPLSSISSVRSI
Description: By using Human S1P4 receptor expressing cells (Multispan Inc. CG1052-1), the elevation of intracellular calcium concentration via agonist activity by the addition of 1000 nM was measured by Fret method (fluorescence resonance energy transfer).

Human S1P5 receptor = target: T3, Human S1P5 receptor (Homo sapiens, UniProt Q9H228); assay: Agonist activity at an S1P5 receptor (reporter assay, EDG8-bla/U2OS cells); assay type: cell-based
T3 construct: host or cells: U2OS (EDG8-bla/U2OS)
T3 sequence (Q9H228 whole entry): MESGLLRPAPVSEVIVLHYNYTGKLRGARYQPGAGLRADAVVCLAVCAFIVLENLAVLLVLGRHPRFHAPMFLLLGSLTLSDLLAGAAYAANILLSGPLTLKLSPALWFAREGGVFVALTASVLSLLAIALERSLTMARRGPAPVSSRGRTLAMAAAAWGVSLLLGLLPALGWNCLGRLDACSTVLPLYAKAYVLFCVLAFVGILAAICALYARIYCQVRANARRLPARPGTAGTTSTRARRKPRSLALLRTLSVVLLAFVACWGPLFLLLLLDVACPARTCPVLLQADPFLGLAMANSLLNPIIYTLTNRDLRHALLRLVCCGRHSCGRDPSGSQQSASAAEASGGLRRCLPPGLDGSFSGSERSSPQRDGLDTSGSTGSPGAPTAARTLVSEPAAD
Description: Human S1P5 receptor gene recombinant EDG8-bla/U2OS cells (Life Technologies Japan Ltd.) were plated in a 384-well clear bottom black plate at 10000 cells/32 μL/well, and the plate was incubated at 37° C. in a 5% CO2 incubator for 48 hours. A culture containing each test compound prepared as a 5× concentrate was added at 8 μL/well, and the plate was incubated at 37° C. in a 5% CO2 incubator for 5 hours. The substrate (LiveBLAzer™-FRET B/G substrate (CCF4-AM), Life Technologies Japan Ltd.) prepared as a 6× concentrate was added at 8 μL to each well, and the plate was incubated at room temperature for 2 hours in the dark. The fluorescence intensity of each well was measured using a bottom-reading fluorescence microplate reader at one excitation wavelength and 2 wavelengths for fluorescence emission (Ex409 nm, Em460 nm, Em530 nm). The intensity ratio of fluorescence at 460 nm/530 nm was calculated for each well. The maximum response ratio confirmed from the dose response of S1P was expressed as 100%. The concentration of test compound required to stimulate 50% of its maximal activation was determined as EC50 (nM).

blood lymphocytic cells = assay: Suppressive effect on circulating lymphocytic cells in a rat; assay type: in vivo; conditions: 6 hours after administration
Description: Under anesthesia, a femoral artery was cannulated in a 7-11-week old male SD rat (Charles River Laboratories Japan Inc.) that had been reared for more than one week. A vehicle (in case of intravascular administration, 10% PEG300-0.01 M KOH saline was used, and in case of oral administration, 0.5% hydroxymethyl cellulose solution was used) or a test compound was administered intravascularly or by gavage administration. Right before the administration or 2, 4, 6 hours after the administration, the number of blood lymphocytic cells was counted by using an automated hematology analyzer XT-1800i or XT-2000i (Sysmex). The count of lymphocytic cells right before the administration was regarded as 100%, and the dose of the test compound that reduced blood lymphocytic cells by 50% of vehicle-treated group at the point of 6 hours after the administration was calculated as ED50 (mg/kg body weight).

heart rate = assay: Evaluation of the heart rate in a rat (under consciousness); assay type: in vivo; conditions: conscious rat, vascularly administered at 6 mg/kg body weight
Description: Under anesthesia, femoral artery was cannulated in a 7-11-week old male SD rat (Charles River Laboratories Japan Inc.) that had been reared for more than one week. Arterial cannula was connected to a pressure transducer, and under consciousness changes in the heart rate were monitored with a polygraph (Nihon Kohden) up to 4 hours after the vascular administration of the vehicle (10% PEG300-0.01M KOH saline) or the test compounds. The dose that lowered the heart rate by 20% was computed as TD20 (mg/kg body weight).

T1 sequence (Q99500 whole entry): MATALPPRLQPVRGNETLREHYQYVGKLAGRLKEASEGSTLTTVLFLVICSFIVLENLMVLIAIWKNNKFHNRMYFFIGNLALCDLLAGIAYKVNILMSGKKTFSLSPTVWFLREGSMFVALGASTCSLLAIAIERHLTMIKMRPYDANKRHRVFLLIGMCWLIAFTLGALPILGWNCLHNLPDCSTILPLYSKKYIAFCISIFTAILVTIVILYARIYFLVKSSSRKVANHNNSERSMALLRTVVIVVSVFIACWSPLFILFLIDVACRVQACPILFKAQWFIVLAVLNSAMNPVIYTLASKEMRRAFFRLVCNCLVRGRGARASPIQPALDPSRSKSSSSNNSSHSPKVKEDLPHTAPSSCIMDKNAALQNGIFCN

SMILES	EC50 (Human S1P3 receptor [1]) [nM]	Emax at 1 µM (Human S1P3 receptor [2]) [%]	activation at 1 µM (Human S1P4 receptor) [%]	EC50 (Human S1P5 receptor) [nM]	ED50, dose reducing blood lymphocytic cells by 50% (blood lymphocytic cells; gavage administration) [mg/kg body weight]	ED50, dose reducing blood lymphocytic cells by 50% (blood lymphocytic cells; vascular administration) [mg/kg body weight]	suppression of the heart rate (heart rate)
CC(C)Oc1ccc(-c2cnc(-c3ccc(CN4CC(C(=O)O)C4)cc3)s2)cc1 [Example 2, 1-(4-(5-(4-isopropoxyphenyl)thiazol-2-yl)benzyl)azetidine-3-carboxylic acid]	≥ 2000	< 20	< 20	≥ 2000	0.13	0.1	not recognized
CC(C)Oc1ccc(-c2cnc(-c3ccc(CN4CC(C(=O)O)C4)cc3)s2)cc1Cl [Example 3, 1-(4-(5-(3-chloro-4-isopropoxyphenyl)thiazol-2-yl)benzyl)azetidine-3-carboxylic acid]	≥ 2000	20 to 50	< 20	≥ 2000	0.15	0.016	not recognized
